# Laboratory results as given in patent US20150044211A1, “COMBINATION OF A 6-OXO-1,6-DIHYDRO-PYRIDAZINE DERIVATIVE HAVING ANTI-CANCER ACTIVITY WITH OTHER ANTI-TUMOR COMPOUNDS” (MERCK PATENT GMBH, priority 2012, published 2015).
# Experiments:
# [1] = tested on: human NCI-H441 NSCLC tumor cells; settings: female CD-1 nude mice; for T/C: end of treatment (18 days), compound 100 mg/kg orally 5 days on 2 days off, erlotinib 40 then 30 mg/kg (MTD)
# Procedure: (§1) Method: Female CD-1 nude mice (6-8 week old) where subcutaneously injected with human NCI-H441 NSCLC tumor cells and were divided into 4 groups (ten animals in one group) after the tumors were established. Respective groups were administered orally with the 3-(1-{3-[5-(1-Methyl-piperidin-4-ylmethoxy)-pyrimidin-2-yl]-benzyl}-6-oxo-1,6-dihydro-pyridazin-3-yl)-benzonitrile hydrochloride hydrate (100 mg/kg—5 days on and 2 days off) or with erlotinib (initial 40 mg/kg followed by 30 mg/kg (MTD)-4 days on and 4 days off followed by 3 days on and 4 days off) alone or both drugs simultaneously for 18 days. […] Statistical calculation has been done at day 7, the day with most body weight difference in erlotinib monotherapy versus combination groups.
# [2] = Body weight change / tolerability in the NCI-H441 xenograft study; settings: Day 7
# Procedure: as §1
# [3] = tested on: human H1975 NSCLC tumor cells; assay: H1975 NSCLC xenograft, combination with cetuximab; assay type: in vivo; settings: single agent 100 mg/kg orally daily for three weeks; CD-1 nude mice
# Excerpt: Method: Female CD-1 nude mice (6-8 week old) where subcutaneously injected with human H1975 NSCLC tumor cells and were divided into 4 groups (nine animals in one group) after the tumors were established.
# [4] = tested on: luciferase-transfected human EBC-1 NSCLC tumor cells; assay: EBC-1 NSCLC xenograft (luciferase-transfected), combination with B20.4-1; assay type: in vivo
# Excerpt: Formation of lung metastases was reduced and could be only detected at the end of treatment in 3/10 mice. B20.4-1 was active with a T/C of 19% and lung metastases in 4/10 mice could be detected at the end of treatment. […] Detectable formation of lung metastases could be suppressed in 10/10 mice.
structure (smiles),measurement,setting,value
"C#Cc1cccc(Nc2ncnc3cc(OCCOC)c(OCCOC)cc23)c1 [erlotinib, reference compound]",T/C,[1],82%
same,"Dunn's Multiple Comparison Test, Difference in rank sum (body weight change %)",[2]; versus Vehicle,6.333
same,"Dunn's Multiple Comparison Test, Significant? P < 0.05? (body weight change %)",[2]; versus Vehicle,no
same,"Dunn's Multiple Comparison Test, Summary (body weight change %)",[2]; versus Vehicle,ns
"CN1CCC(COc2cnc(-c3cccc(Cn4nc(-c5cccc(C#N)c5)ccc4=O)c3)nc2)CC1.Cl.O [“A”, 3-(1-{3-[5-(1-Methyl-piperidin-4-ylmethoxy)-pyrimidin-2-yl]-benzyl}-6-oxo-1,6-dihydro-pyridazin-3-yl)-benzonitrile hydrochloride hydrate]",anti-tumor activity (in words),[3],inactive
same,T/C,[1],20%
same,tumor growth delay (TGD),"[1]; compound 100 mg/kg, erlotinib 40 then 30 mg/kg, 18 days",16 days
same,partial regression,"[4]; SCID hairless mice, 20 days of treatment",1/10
same,lung metastases detected at the end of treatment,"[4]; SCID hairless mice, 20 days, ex vivo lung images",3/10
same,T/C,"[4]; end of treatment (20 days), female SCID hairless mice, compound 10 mg/kg orally daily, B20.4-1 20 mg/kg intraperitoneally biweekly",−20%
same,"Dunn's Multiple Comparison Test, Difference in rank sum (body weight change %)",[2]; versus Vehicle,2.000
same,"Dunn's Multiple Comparison Test, Significant? P < 0.05? (body weight change %)",[2]; versus Vehicle,no
same,"Dunn's Multiple Comparison Test, Summary (body weight change %)",[2]; versus Vehicle,ns
same,"Dunn's Multiple Comparison Test, Difference in rank sum (body weight change %)",[2]; versus erlotinib 30 mg/kg,−4.333
same,"Dunn's Multiple Comparison Test, Significant? P < 0.05? (body weight change %)",[2]; versus erlotinib 30 mg/kg,no
same,"Dunn's Multiple Comparison Test, Summary (body weight change %)",[2]; versus erlotinib 30 mg/kg,ns
